Assay results taken from patent publication US11021457B2, “Class of isoindolone-imide ring-1,3-dione-2-ene compounds, composition and use thereof” (WIGEN BIOMEDICINE TECHNOLOGY (SHANGHAI) CO., LTD., priority 2017, dated 2021).

Legend:
Format in all cases: cell-based
SU-DHL6 = assay: Inhibition of tumor cell proliferation, CellTiter-Glo, SU-DHL6; details: compound concentration 50 μM, 72 hours; for cell survival rate (% of control) at 50 µM: Homo sapiens, SU-DHL-6, read-out: Inhibitory activity against proliferation (cell survival rate) SU-DHL6
How it was run: (§1)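 Luminescent ATP read-out (CellTiter-Glo) after 72 hours gave survival relative to untreated wells, corrected for blank. Activity categories were assigned from survival at 50 μM: ≤30% high, >30-60% moderate, 60-<90% low.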

RPMI-8226 = assay: Inhibition of tumor cell proliferation, CellTiter-Glo, RPMI-8226; details: compound concentration 50 μM, 72 hours; for cell survival rate (% of control) at 50 µM: Homo sapiens, RPMI-8226, read-out: Inhibitory activity against proliferation (cell survival rate) RPMI-8226
How it was run: as §1

K562 = assay: Inhibition of tumor cell proliferation, CellTiter-Glo, K562; details: compound concentration 50 μM, 72 hours; for cell survival rate (%) at 50 µM: Homo sapiens, K562, read-out: Inhibitory activity against proliferation (cell survival rate) K562
How it was run: as §1

A549 = assay: Inhibition of tumor cell proliferation, CellTiter-Glo, A549; details: compound concentration 50 μM, 72 hours; for cell survival rate (% of control) at 50 µM: Homo sapiens, A549, read-out: Inhibitory activity against proliferation (cell survival rate) A549
How it was run: as §1

MDA-MB-453 = assay: Inhibition of tumor cell proliferation, CellTiter-Glo, MDA-MB-453; details: compound concentration 50 μM, 72 hours; for cell survival rate (%) at 50 µM: Homo sapiens, MDA-MB-453, read-out: Inhibitory activity against proliferation (cell survival rate) MDA-MB-453
How it was run: as §1

BxPC-3 = assay: Inhibition of tumor cell proliferation, CellTiter-Glo, BxPC-3; details: compound concentration 50 μM, 72 hours; for cell survival rate (%) at 50 µM: Homo sapiens, BXPC-3, read-out: Inhibitory activity against proliferation (cell survival rate) BxPC-3
How it was run: as §1

SMILES	cell survival rate (% of control) at 50 µM (SU-DHL6)	cell survival rate (% of control) at 50 µM (RPMI-8226)	cell survival rate (%) at 50 µM (K562)	cell survival rate (% of control) at 50 µM (A549)	cell survival rate (%) at 50 µM (MDA-MB-453)	cell survival rate (%) at 50 µM (BxPC-3)	Inhibitory activity against proliferation (cell survival rate) SU-DHL6 (SU-DHL6)	Inhibitory activity against proliferation (cell survival rate) RPMI-8226 (RPMI-8226)	Inhibitory activity against proliferation (cell survival rate) K562 (K562)	Inhibitory activity against proliferation (cell survival rate) A549 (A549)	Inhibitory activity against proliferation (cell survival rate) MDA-MB-453 (MDA-MB-453)	Inhibitory activity against proliferation (cell survival rate) BxPC-3 (BxPC-3)
O=C1CCC(N2Cc3c(NC=C4C(=O)NC(c5ccccc5)NC4=O)cccc3C2=O)C(=O)N1 (stereo not drawn) [Compound 115]	30 to 60%	60 to 90%	30 to 60%	30 to 60%	≤ 30%	60 to 90%	–	–	–	–	–	–
CC(C)Cn1cccc1C1CC(=O)C(=CNc2cccc3c2CN(C2CCC(=O)NC2=O)C3=O)C(=O)C1 (stereo not drawn) [Compound 116]	–	–	–	–	–	–	+ (60≤survival rate (%)<90)	++ (30<survival rate (%)≤60)	++ (30<survival rate (%)≤60)	++ (30<survival rate (%)≤60)	++ (30<survival rate (%)≤60)	++ (30<survival rate (%)≤60)
O=C1CCC(N2Cc3c(NC=C4C(=O)CC(c5ccc(-c6ccncc6)cc5)CC4=O)cccc3C2=O)C(=O)N1 (stereo not drawn) [Compound 117]	–	–	–	–	–	–	+ (60≤survival rate (%)<90)	+++ (survival rate (%)≤30)	++ (30<survival rate (%)≤60)	+ (60≤survival rate (%)<90)	+ (60≤survival rate (%)<90)	+ (60≤survival rate (%)<90)
O=C1CCC(N2Cc3c(NC=C4C(=O)CC(COc5ccccc5)CC4=O)cccc3C2=O)C(=O)N1 (stereo not drawn) [Compound 118]	–	–	–	–	–	–	+ (60≤survival rate (%)<90)	+ (60≤survival rate (%)<90)	++ (30<survival rate (%)≤60)	+ (60≤survival rate (%)<90)	+ (60≤survival rate (%)<90)	+ (60≤survival rate (%)<90)
O=C1CCC(N2Cc3c(NC=C4C(=O)CN(c5ccccc5)CC4=O)cccc3C2=O)C(=O)N1 (stereo not drawn) [Compound 119]	30 to 60%	30 to 60%	30 to 60%	60 to 90%	30 to 60%	30 to 60%	–	–	–	–	–	–
O=C1CCC(N2Cc3c(NC=C4C(=O)CC(/C=C/c5ccccc5)CC4=O)cccc3C2=O)C(=O)N1 (stereo not drawn) [Compound 120]	–	–	–	–	–	–	++ (30<survival rate (%)≤60)	++ (30<survival rate (%)≤60)	++ (30<survival rate (%)≤60)	+ (60≤survival rate (%)<90)	++ (30<survival rate (%)≤60)	+ (60≤survival rate (%)<90)
O=C1CCC(N2Cc3c(N/C=C4\C(=O)CC(Cc5ccccc5)C4=O)cccc3C2=O)C(=O)N1 (stereo not drawn) [Compound 121]	≤ 30%	≤ 30%	30 to 60%	60 to 90%	30 to 60%	60 to 90%	–	–	–	–	–	–
O=C1CCC(N2Cc3c(N/C=C4\C(=O)CCC(c5ccccc5)CC4=O)cccc3C2=O)C(=O)N1 (stereo not drawn) [Compound 124]	60 to 90%	60 to 90%	60 to 90%	60 to 90%	≤ 30%	30 to 60%	–	–	–	–	–	–
O=C1CCC(N2C(=O)c3cccc(OCCOCCOCCOCCN4CCN(CCNC=C5C(=O)CC(c6ccccc6)CC5=O)CC4)c3C2=O)C(=O)N1 (stereo not drawn) [Compound 125]	–	–	–	–	–	–	+++ (survival rate (%)≤30)	+++ (survival rate (%)≤30)	+ (60≤survival rate (%)<90)	+ (60≤survival rate (%)<90)	+++ (survival rate (%)≤30)	++ (30<survival rate (%)≤60)
O=C1CCC(N2Cc3c(N/C=C4\C(=O)CC(c5ccccc5)NC4=O)cccc3C2=O)C(=O)N1 (stereo not drawn) [Compound 126]	60 to 90%	≤ 30%	60 to 90%	60 to 90%	60 to 90%	30 to 60%	–	–	–	–	–	–
CC1C(=O)/C(=C/Nc2cccc3c2CN(C2CCC(=O)NC2=O)C3=O)C(=O)CC1c1ccccc1 (stereo not drawn) [Compound 127]	≤ 30%	60 to 90%	60 to 90%	60 to 90%	60 to 90%	60 to 90%	–	–	–	–	–	–
O=C1CCC(N2Cc3c(NC=C4C(=O)CC(c5ncnc6sccc56)CC4=O)cccc3C2=O)C(=O)N1 (stereo not drawn) [Compound 130]	–	–	–	–	–	–	+++ (survival rate (%)≤30)	++ (30<survival rate (%)≤60)	++ (30<survival rate (%)≤60)	+++ (survival rate (%)≤30)	+++ (survival rate (%)≤30)	+ (60≤survival rate (%)<90)
O=C1CCC(N2Cc3c(NCCOCCOCCOCCN4CCN(CCNC=C5C(=O)CC(c6ccccc6)CC5=O)CC4)cccc3C2=O)C(=O)N1 (stereo not drawn) [Compound 133]	–	–	–	–	–	–	+ (60≤survival rate (%)<90)	+ (60≤survival rate (%)<90)	++ (30<survival rate (%)≤60)	+ (60≤survival rate (%)<90)	+ (60≤survival rate (%)<90)	++ (30<survival rate (%)≤60)
CCOC(=O)C1CC(=O)C(=CNc2cccc3c2CN(C2CCC(=O)NC2=O)C3=O)C(=O)C1 (stereo not drawn) [Compound 134]	–	–	–	–	–	–	+ (60≤survival rate (%)<90)	+ (60≤survival rate (%)<90)	+ (60≤survival rate (%)<90)	+ (60≤survival rate (%)<90)	+++ (survival rate (%)≤30)	++ (30<survival rate (%)≤60)
O=C1CCC(N2Cc3c(NC=C4C(=O)CC(C(=O)Nc5ccc(Cl)cc5)CC4=O)cccc3C2=O)C(=O)N1 (stereo not drawn) [Compound 135]	–	–	–	–	–	–	+++ (survival rate (%)≤30)	++ (30<survival rate (%)≤60)	++ (30<survival rate (%)≤60)	+++ (survival rate (%)≤30)	+++ (survival rate (%)≤30)	+ (60≤survival rate (%)<90)
O=C1CCC(N2Cc3c(N/C=C4\C(=O)Nc5cc(C(F)(F)F)ccc5C4=O)cccc3C2=O)C(=O)N1 (stereo not drawn) [Compound 137]	≤ 30%	≤ 30%	30 to 60%	60 to 90%	60 to 90%	30 to 60%	–	–	–	–	–	–
